This is an account of results in US9403833B2, “Carboxamide derivatives” (Novartis AG, priority 2014, dated 2016).

The target of this test is Smurf-1 (Homo sapiens (Human), UniProt Q9HCE7). Kind of test: HECT E3 ligase autoubiquitinylation TR-FRET assay (Smurf-1). It is filed as biochemical. Conditions: 8-point dose-response, 3 nM to 10 uM, 45 min incubation. From the text:
To determine the HECT E3 ligase selectivity of the compounds, a panel of biochemical HECT E3 ligase autoubiquitinylation assays was employed (Smurf-1, Smurf-2, WWP1, WWP2, ITCH, Nedd4, Nedd4L and E6AP). The conjugation of ubiquitin to a protein substrate is a multistep process. In an initial ATP-requiring step, a thioester bond is formed between the carboxyl terminus of ubiquitin and an internal cystein residue of the ubiquitin-activating enzyme (E1). Activated ubiquitin is then transferred to a specific cystein residue of an ubiquitin-conjugating enzyme (E2). E2s donate ubiquitin to a HECT E3 ligase (E3) from which it is transferred to the substrate protein. HECT E3 ligases can auto-ubiquitinylate. This event is detected in the TR-FRET (Time-Resolved Fluorescence Resonance Energy Transfer) assay used in this panel. The reaction mix contains E1, E2, tagged-E3, biotin-conjugated ubiquitin, the compound and ATP in a suitable buffer and is incubated for 45 minutes to allow auto-ubiquitinylation of the E3 ligase. To measure the extent of ubiquitinylated E3 ligase by TR-FRET, the donor fluorophore Europium cryptate (Eu3+ cryptate), conjugated to streptavidin which subsequently binds to biotinylated ubiquitin, and the modified allophycocyanin XL665 (HTRF® primary acceptor fluorophore) coupled to a tag-specific antibody (HA, His or GST), which recognizes the respective E3 ligase fusion proteins, are added after the reaction is complete. When these two fluorophores are brought together by a biomolecular interaction (in this case ubiquitinylation of the E3 ligase), a portion of the energy captured by the Cryptate during excitation is released through fluorescence emission at 620 nm, while the remaining energy is transferred to XL665. This energy is then released by XL665 as specific fluorescence at 665 nm. Light at 665 nm is emitted only through FRET with Europium.
Test and reference compounds are prepared at 180× [final] in 90% DMSO, and diluted 1:3 in 90% DMSO.
For the biochemical assay panel, 50 nl of the test compounds, reference compounds and buffer/DMSO control are transferred to the respective wells of a 384-well white GREINER “SMALL VOLUME” PS plate. The assay panel is run at room temperature on a Biomek FX liquid handling workstation. To the assay plates containing 50 nl compound or control solutions in 90% DMSO, 4.5 ul of E3 ligase solution were added per well, followed by 4.5 ul of the pre-incubated E1/E2/Ub mix or the pre-diluted ubiquitin (LOW control). Plates are shaken vigorously after each addition. In this assay the compound concentrations range from 3 nM to 10 uM in an 8-point dose-response curve.
After 45 min of incubation the ubiquitinylation reactions were stopped by adding 4.5 ul 2 mM NEM, immediately followed by 4.5 ul of a detection solution including the XL665-labeled antibody and the streptavidin-coupled europium to give a total volume of 18 ul. After an incubation time of 45 min in the dark, the plates are transferred into the Pherastar fluorescence reader to measure the TR-FRET signal.
(In TR-FRET formats the signal depends on donor and acceptor labels being close together.)

Sequence of Smurf-1 (Q9HCE7 whole entry): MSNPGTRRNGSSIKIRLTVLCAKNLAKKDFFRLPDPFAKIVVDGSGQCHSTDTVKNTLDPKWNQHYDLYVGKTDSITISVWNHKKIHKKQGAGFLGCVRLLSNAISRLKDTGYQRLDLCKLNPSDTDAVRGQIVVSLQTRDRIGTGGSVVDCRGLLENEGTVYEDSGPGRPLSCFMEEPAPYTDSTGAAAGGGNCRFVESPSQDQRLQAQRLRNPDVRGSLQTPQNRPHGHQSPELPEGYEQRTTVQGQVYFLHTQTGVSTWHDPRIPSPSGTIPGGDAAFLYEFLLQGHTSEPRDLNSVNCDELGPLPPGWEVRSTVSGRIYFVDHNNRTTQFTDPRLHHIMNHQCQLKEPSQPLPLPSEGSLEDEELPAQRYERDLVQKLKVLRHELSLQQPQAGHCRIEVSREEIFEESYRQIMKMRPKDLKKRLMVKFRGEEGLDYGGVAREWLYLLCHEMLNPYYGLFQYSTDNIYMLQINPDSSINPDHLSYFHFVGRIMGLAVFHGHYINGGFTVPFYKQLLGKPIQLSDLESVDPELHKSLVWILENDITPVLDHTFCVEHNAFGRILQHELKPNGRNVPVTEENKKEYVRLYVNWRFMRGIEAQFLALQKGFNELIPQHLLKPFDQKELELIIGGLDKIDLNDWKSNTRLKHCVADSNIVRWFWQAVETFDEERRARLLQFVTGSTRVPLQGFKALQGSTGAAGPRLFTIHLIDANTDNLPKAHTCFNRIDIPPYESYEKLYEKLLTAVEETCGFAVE

The term IC50 denotes the concentration that inhibits the measured activity by half. Read a low IC50 as higher potency. Compound `COc1ccc(-n2nnc(C(=O)Nc3c(C)n(C)n(C4CCCCC4)c3=O)c2C)c(Cl)c1` [Example 1, 1-(2-Chloro-4-methoxyphenyl)-N-(2-cyclohexyl-1,5-dimethyl-3-oxo-2,3-dihydro-1H-pyrazol-4-yl)-5-methyl-1H-1,2,3-triazole-4-carboxamide] yielded an IC50 of 440 nM.

Regarding `Cc1c(C(=O)Nc2c(C)n(C)n(C3CCCCC3)c2=O)nnn1-c1ccc(Cl)cc1Cl` [Example 2, N-(2-Cyclohexyl-1,5-dimethyl-3-oxo-2,3-dihydro-1H-pyrazol-4-yl)-1-(2,4-dichlorophenyl)-5-methyl-1H-1,2,3-triazole-4-carboxamide], the IC50 is 570 nM.

The compound `COc1ccc(-n2nnc(C(=O)Nc3c(C)n(C)n(C4CCCCC4)c3=O)c2C)c(C(F)(F)F)c1` [Example 3, N-(2-Cyclohexyl-1,5-dimethyl-3-oxo-2,3-dihydro-1H-pyrazol-4-yl)-1-(4-methoxy-2-(trifluoromethyl)phenyl)-5-methyl-1H-1,2,3-triazole-4-carboxamide] gave an IC50 of 890 nM.

With `Cc1c(C(=O)Nc2c(C)n(C)n(C3CCCCC3)c2=O)nnn1-c1ccc(OC(F)(F)F)cc1Cl` [Example 5, 1-(2-Chloro-4-(trifluoromethoxy)phenyl)-N-(2-cyclohexyl-1,5-dimethyl-3-oxo-2,3-dihydro-1H-pyrazol-4-yl)-5-methyl-1H-1,2,3-triazole-4-carboxamide], the IC50 stood at 550 nM.

As to `Cc1c(C(=O)Nc2c(C)n(C)n(C3CCCCC3)c2=O)nnn1-c1ccc(Cl)cc1` [Example 6, 1-(4-Chlorophenyl)-N-(2-cyclohexyl-1,5-dimethyl-3-oxo-2,3-dihydro-1H-pyrazol-4-yl)-5-methyl-1H-1,2,3-triazole-4-carboxamide], the midpoint of inhibition, the IC50, lay at 8200 nM.

For the compound `Cc1c(C(=O)Nc2c(C)n(C)n(-c3ccccc3F)c2=O)nnn1-c1ccc(Cl)cc1Cl` [Example 7, 1-(2,4-Dichlorophenyl)-N-(2-(2-fluorophenyl)-1,5-dimethyl-3-oxo-2,3-dihydro-1H-pyrazol-4-yl)-5-methyl-1H-1,2,3-triazole-4-carboxamide], the IC50 was found to be 5800 nM.

In turn, `Cc1c(C(=O)Nc2c(C)n(C)n(-c3ccccc3F)c2=O)nnn1-c1ccc(Cl)cc1` [Example 8, 1-(4-Chlorophenyl)-N-(2-(2-fluorophenyl)-1,5-dimethyl-3-oxo-2,3-dihydro-1H-pyrazol-4-yl)-5-methyl-1H-1,2,3-triazole-4-carboxamide] displayed an IC50 of 2800 nM. Compared with the last compound, the IC50 is about 2.1-fold lower.

Compound `Cc1c(C(=O)Nc2c(C)n(C)n(-c3ccccc3F)c2=O)nnn1-c1ccc(OC(F)(F)F)cc1Cl` [Example 9, 1-(2-Chloro-4-(trifluoromethoxy)phenyl)-N-(2-(2-fluorophenyl)-1,5-dimethyl-3-oxo-2,3-dihydro-1H-pyrazol-4-yl)-5-methyl-1H-1,2,3-triazole-4-carboxamide] returned an IC50 of 4400 nM.

As to `Cc1c(C(=O)Nc2c(C)n(C)n(C3CCCCC3)c2=O)nnn1-c1ccc(C2CC2)cc1Cl` [Example 10, 1-(2-Chloro-4-cyclopropylphenyl)-N-(2-cyclohexyl-1,5-dimethyl-3-oxo-2,3-dihydro-1H-pyrazol-4-yl)-5-methyl-1H-1,2,3-triazole-4-carboxamide], the IC50 is 92 nM.

As for `Cc1c(C(=O)Nc2c(C)n(C)n(-c3ccccc3F)c2=O)nnn1-c1ccc(C2CC2)cc1Cl` [Example 11, 1-(2-Chloro-4-cyclopropylphenyl)-N-(2-(2-fluorophenyl)-1,5-dimethyl-3-oxo-2,3-dihydro-1H-pyrazol-4-yl)-5-methyl-1H-1,2,3-triazole-4-carboxamide], half-maximal inhibition (IC50) required 1000 nM.

As to `[2H]C([2H])([2H])n1c(C)c(NC(=O)c2nnn(-c3ccc(C4CC4)cc3Cl)c2C)c(=O)n1C1CCCCC1` [Example 12, 1-(2-Chloro-4-cyclopropylphenyl)-N-(2-cyclohexyl-1-methyl-d3,5-methyl-3-oxo-2,3-dihydro-1H-pyrazol-4-yl)-5-methyl-1H-1,2,3-triazole-4-carboxamide], 98 nM corresponded to half-maximal inhibition (IC50).

Turning to `Cc1c(C(=O)Nc2c(C)n(C)n(-c3ccccc3F)c2=O)nnn1-c1ccc(Cl)cc1C1CC1` [Example 13, 1-(4-Chloro-2-cyclopropylphenyl)-N-(2-(2-fluorophenyl)-1,5-dimethyl-3-oxo-2,3-dihydro-1H-pyrazol-4-yl)-5-methyl-1H-1,2,3-triazole-4-carboxamide], the IC50 turned out to be 3300 nM. Compared with the last compound, the IC50 is about 34-fold higher.

`Cc1c(C(=O)Nc2c(C)n(C)n(C3CCCCC3)c2=O)nnn1-c1ccc(Cl)cc1C1CC1` [Example 14, 1-(4-Chloro-2-cyclopropylphenyl)-N-(2-cyclohexyl-1,5-dimethyl-3-oxo-2,3-dihydro-1H-pyrazol-4-yl)-5-methyl-1H-1,2,3-triazole-4-carboxamide] displayed an IC50 of 230 nM.

`Cc1c(C(=O)Nc2c(C)n(C)n(C3CCCCC3)c2=O)nnn1-c1ccc(F)cc1C1CC1` [Example 15, N-(2-Cyclohexyl-1,5-dimethyl-3-oxo-2,3-dihydro-1H-pyrazol-4-yl)-1-(2-cyclopropyl-4-fluorophenyl)-5-methyl-1H-1,2,3-triazole-4-carboxamide] came in with an IC50 of 4500 nM.

Turning to `Cc1c(NC(=O)c2nnn3c2CCCc2cc(OC(F)(F)F)ccc2-3)c(=O)n(C2CCCCC2)n1C` [Example 16, N-(2-Cyclohexyl-1,5-dimethyl-3-oxo-2,3-dihydro-1H-pyrazol-4-yl)-8-(trifluoromethoxy)-5,6-dihydro-4H-benzo[f][1,2,3]triazolo[1,5-a]azepine-3-carboxamide], the IC50 was 55 nM.

`COc1ccc(-n2nnc(C(=O)Nc3c(C)n(C)n(C4CCCCC4)c3=O)c2C)cc1` [Example 17, N-(2-Cyclohexyl-1,5-dimethyl-3-oxo-2,3-dihydro-1H-pyrazol-4-yl)-1-(4-methoxyphenyl)-5-methyl-1H-1,2,3-triazole-4-carboxamide] came in with an IC50 of 3100 nM.
